PubChem BioAssay AID2060500 (Molecular Pharmacology Branch, DTP, NCI, 2025)

Tested on: 596521-263-R-J1-PDC complex spheroids, viability % of control
Test: Anticancer human tumor 596521-263-R-J1-PDC patient-derived soft tissue sarcoma cell line growth inhibition [GQUAD]
Details: for IC50: curve of first compound; for viability, T/C: stronger effect = lower value
Excerpt: DNA G-quadruplex Stabilizer Agents in Combinations in Complex Spheroids
A high-throughput screen of multi-cell type tumor spheroids was designed to identify active combinations of DNA G-quadruplex stabilizer agents and targeted small molecules. Complex spheroids include a stromal component modeled by human endothelial cells (HUVEC) and fibroblasts modeled by human mesenchymal stem cells (MSCs). The concentration ranges selected for each drug and investigational agent were based upon clinically achievable concentrations if the clinical Cmax of the agent was known.
Compounds. The drugs and investigational agents: pidnarulex (CX-5461; NSC782164), APTO-253 (NSC789042), BRACO-19 (NSC847499), peposertib (NSC802822), ceralasertib (NSC780249), elimusertib (NSC800525), camonsertib (NSC841442), AZD-1390 (NSC803789), olaparib (NSC753686), talazoparib (NSC767125), ART-558 (NSC835418), sotorasib (NSC818433), MRTX-1133 (NSC836407), SN-38 (NSC673596), topotecan (NSC609699), etoposide (NSC141540), doxorubicin (NSC123127), gemcitabine (NSC613327), 5-fluorouracil (NSC19893), paclitaxel (NSC125973), vemurafenib (NSC761431), panobinostat (NSC761190), R-306465 (JNJ-16241199; NSC773264), adavosertib (NSC754352), TP-3654 (NSC805149), carboplatin (NSC241240), KSQ-4279 (NSC840948), and staurosporine (NSC755774) were obtained from the National Cancer Institute (NCI) Developmental Therapeutics Program Chemical Repository (34). The FDA-approved anticancer drug set is available from the NCI Developmental Therapeutics Program. […] The stock solutions were prepared in dimethyl sulfoxide (DMSO, Sigma-Aldrich, St. Louis, MO, cat. D2650) at 800-fold the tested concentration and stored at -70 degrees C prior to their use. All drugs and investigational agents were tested over a range starting from a high concentration at or near the clinical Cmax and decreasing in half-log increments. If the clinical Cmax for an agent had not been determined, the highest concentration tested was 10 microM.
2.3 Cell Culture. All cells were maintained in an incubator at 37 degrees C and 5% CO2 with 95% humidity. The PDC lines were cultured according to standard operating procedures established by the NCI PDMR. All PDCs were thawed and cultured in Matrigel-coated flasks prepared with a working solution of 1X Ham's F-12 nutrient mix, without supplementation (Invitrogen, cat. 11765054), 100 U/mL penicillin-streptomycin (Invitrogen, cat. 15140122), and 2.5% Matrigel (Corning Inc., cat. 354248) for the first three passages. The 857933-349-R-J2-PDC line was cultured in 6C/Colon 1B media, which includes advanced DMEM/F-12 (Thermo Fisher Scientific, cat. 12634028), 10 mM HEPES (Thermo Fisher Scientific, cat. 15630080), 1X GlutaMAX supplement (Thermo Fisher Scientific, cat. 35050061), 0.1 mg/mL primocin (InvivoGen, cat. ant-pm-2), 10% defined fetal bovine serum, heat inactivated (HyClone Laboratories Inc., cat. SH30070.03HI), 50% L-WRN conditioned media (ATCC, cat. CRL-3276), 1.25 mM N-Acetyl-L-cysteine (Sigma-Aldrich, cat. A9165), 10 mM nicotinamide (Sigma-Aldrich, cat. N0636), 1X B-27 supplement (Thermo Fisher Scientific, cat. 17504044), 1X N-2 supplement (Thermo Fisher Scientific, cat. 17502048), 10 microM Y-27632 dihydrochloride (Tocris Bioscience, cat. 1254), and 50 ng/mL human EGF recombinant protein (Thermo Fisher Scientific, cat. PHG0311). The 485176-168-R4-J1-PDC line was cultured in Panc media, which includes all 6C/Colon 1B media components plus 100 ng/mL human FGF-10 (Thermo Fisher Scientific, cat. 100-26), 500 nM SB-431542 (Selleckchem, cat. S1067), and gastrin (Tocris, cat. 3006).
[…]

[1] = second compound 0.0316 µM, first compound 0.0316 µM
[2] = second compound 0.0316 µM, first compound 0.1 µM
[3] = second compound 0.0316 µM, first compound 0.316 µM
[4] = second compound 0.0316 µM, first compound 1 µM
[5] = second compound 0.0316 µM, first compound 3.16 µM
[6] = second compound 0.0316 µM, first compound 10 µM
[7] = second compound 0.1 µM, first compound 0.0316 µM
[8] = second compound 0.1 µM, first compound 0.1 µM
[9] = second compound 0.1 µM, first compound 0.316 µM
[10] = second compound 0.1 µM, first compound 1 µM
[11] = second compound 0.1 µM, first compound 3.16 µM
[12] = second compound 0.1 µM, first compound 10 µM
[13] = second compound 0.316 µM, first compound 0.0316 µM
[14] = second compound 0.316 µM, first compound 0.1 µM
[15] = second compound 0.316 µM, first compound 0.316 µM
[16] = second compound 0.316 µM, first compound 1 µM
[17] = second compound 0.316 µM, first compound 3.16 µM
[18] = second compound 0.316 µM, first compound 10 µM
[19] = second compound 1 µM, first compound 0.0316 µM
[20] = second compound 1 µM, first compound 0.1 µM
[21] = second compound 1 µM, first compound 0.316 µM
[22] = second compound 1 µM, first compound 1 µM
[23] = second compound 1 µM, first compound 3.16 µM
[24] = second compound 1 µM, first compound 10 µM
[25] = second compound 3.16 µM, first compound 0.0316 µM
[26] = second compound 3.16 µM, first compound 0.1 µM
[27] = second compound 3.16 µM, first compound 0.316 µM
[28] = second compound 3.16 µM, first compound 1 µM
[29] = second compound 3.16 µM, first compound 3.16 µM
[30] = second compound 3.16 µM, first compound 10 µM
[31] = second compound 10 µM, first compound 0.0316 µM
[32] = second compound 10 µM, first compound 0.1 µM
[33] = second compound 10 µM, first compound 0.316 µM
[34] = second compound 10 µM, first compound 1 µM
[35] = second compound 10 µM, first compound 3.16 µM
[36] = second compound 10 µM, first compound 10 µM
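Also: spheroids exposed to drugs for 7 days before viability reading.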

In the case of `C#Cc1c(F)ccc2cc(O)cc(-c3ncc4c(N5CC6CCC(C5)N6)nc(OCC56CCCN5CC(F)C6)nc4c3F)c12` (stereo unspecified) + Cc1[nH]c2ccc(F)cc2c1-c1nc2c3cccnc3c3ncccc3c2[nH]1, the IC50 (second compound 0.0316 µM) is reported as 1.28 µM, the IC50 (second compound 0.1 µM) is reported as 1.39 µM and the IC50 (second compound 0.316 µM) is reported as 1.38 µM. The IC50 (second compound 1 µM) was 1.35 µM, the IC50 (second compound 3.16 µM) was 1.71 µM and the IC50 (second compound 10 µM) was 1.49 µM. For the same compound, the viability, T/C [1] was 111%, the viability, T/C [2] was 94.7% and the viability, T/C [3] was 89.1%. For the same compound, the viability, T/C [4] was 60.9%, the viability, T/C [5] was 17.9% and the viability, T/C [6] was 18.9%. It also gave a viability, T/C [7] of 104%, a viability, T/C [8] of 93.3% and a viability, T/C [9] of 97.4%. The viability, T/C [10] was 62.1%, the viability, T/C [11] was 17.5% and the viability, T/C [12] was 22.7%. For the same compound, the viability, T/C [13] was 113%, the viability, T/C [14] was 95.6% and the viability, T/C [15] was 97.3%. For the same compound, the viability, T/C [16] was 62.5%, the viability, T/C [17] was 16.1% and the viability, T/C [18] was 21.2%. For the same compound, the viability, T/C [19] was 88%, the viability, T/C [20] was 87.7% and the viability, T/C [21] was 92.9%. The viability, T/C [22] was 59.9%, the viability, T/C [23] was 21.1% and the viability, T/C [24] was 22.5%. The viability, T/C [25] was 83.8%, the viability, T/C [26] was 95.1% and the viability, T/C [27] was 80.7%. The viability, T/C [28] was 65.9%, the viability, T/C [29] was 31.6% and the viability, T/C [30] was 29%. For the same compound, the viability, T/C [31] was 78.3%, the viability, T/C [32] was 78% and the viability, T/C [33] was 81%. It also gave a viability, T/C [34] of 60.8%, a viability, T/C [35] of 29.1% and a viability, T/C [36] of 30%.
In the case of `C=CCn1c(=O)c2cnc(Nc3ccc(N4CCN(C)CC4)cc3)nc2n1-c1cccc(C(C)(C)O)n1` + Cc1[nH]c2ccc(F)cc2c1-c1nc2c3cccnc3c3ncccc3c2[nH]1, the IC50 (second compound 0.0316 µM) is reported as 5.81 µM, the IC50 (second compound 0.1 µM) is reported as 5.31 µM and the IC50 (second compound 0.316 µM) is reported as 5.46 µM. The IC50 (second compound 1 µM) was 5.29 µM, the IC50 (second compound 3.16 µM) was 5.68 µM and the IC50 (second compound 10 µM) was 5.57 µM. The viability, T/C [1] was 99.1%, the viability, T/C [2] was 97.8% and the viability, T/C [3] was 92.5%. The viability, T/C [4] was 88%, the viability, T/C [5] was 69.9% and the viability, T/C [6] was 32%. For the same compound, the viability, T/C [7] was 120%, the viability, T/C [8] was 91.6% and the viability, T/C [9] was 92.5%. The viability, T/C [10] was 94.7%, the viability, T/C [11] was 64.8% and the viability, T/C [12] was 30%. The viability, T/C [13] was 110%, the viability, T/C [14] was 88.3% and the viability, T/C [15] was 81.7%. It also gave a viability, T/C [16] of 84.5%, a viability, T/C [17] of 70.3% and a viability, T/C [18] of 31.2%. The viability, T/C [19] was 102%, the viability, T/C [20] was 88.8% and the viability, T/C [21] was 86.7%. For the same compound, the viability, T/C [22] was 90.2%, the viability, T/C [23] was 64.3% and the viability, T/C [24] was 31.3%. It also gave a viability, T/C [25] of 83.7%, a viability, T/C [26] of 85% and a viability, T/C [27] of 92.1%. It also gave a viability, T/C [28] of 86.2%, a viability, T/C [29] of 66.8% and a viability, T/C [30] of 33.7%. For the same compound, the viability, T/C [31] was 90.3%, the viability, T/C [32] was 82.2% and the viability, T/C [33] was 84.5%. The viability, T/C [34] was 79.2%, the viability, T/C [35] was 69.4% and the viability, T/C [36] was 31.2%.
Work on `CC(=O)O[C@H]1C(=O)[C@@]2(C)[C@H]([C@H](OC(=O)c3ccccc3)[C@]3(O)C[C@H](OC(=O)[C@H](O)[C@@H](NC(=O)c4ccccc4)c4ccccc4)C(C)=C1C3(C)C)[C@]1(OC(C)=O)CO[C@@H]1C[C@@H]2O` + Cc1[nH]c2ccc(F)cc2c1-c1nc2c3cccnc3c3ncccc3c2[nH]1 yielded an IC50 (second compound 0.0316 µM) of 0.122 µM, an IC50 (second compound 0.1 µM) of 0.144 µM and an IC50 (second compound 0.316 µM) of 0.173 µM. The IC50 (second compound 1 µM) was 0.212 µM, the IC50 (second compound 3.16 µM) was 0.204 µM and the IC50 (second compound 10 µM) was 0.226 µM. The viability, T/C [1] was 90.8%, the viability, T/C [2] was 55.8% and the viability, T/C [3] was 20.6%. It also gave a viability, T/C [4] of 0.81%, a viability, T/C [5] of 0.38% and a viability, T/C [6] of 0.28%. It also gave a viability, T/C [7] of 96.1%, a viability, T/C [8] of 60.2% and a viability, T/C [9] of 28.2%. It also gave a viability, T/C [10] of 0.74%, a viability, T/C [11] of 0.23% and a viability, T/C [12] of 0.22%. The viability, T/C [13] was 107%, the viability, T/C [14] was 69.1% and the viability, T/C [15] was 30.8%. It also gave a viability, T/C [16] of 1.26%, a viability, T/C [17] of 0.2% and a viability, T/C [18] of 1.66%. For the same compound, the viability, T/C [19] was 89.1%, the viability, T/C [20] was 74.9% and the viability, T/C [21] was 37.5%. It also gave a viability, T/C [22] of 1.83%, a viability, T/C [23] of 0.31% and a viability, T/C [24] of 0.28%. The viability, T/C [25] was 85.4%, the viability, T/C [26] was 69% and the viability, T/C [27] was 39.2%. For the same compound, the viability, T/C [28] was 1.48%, the viability, T/C [29] was 0.34% and the viability, T/C [30] was 1.18%. For the same compound, the viability, T/C [31] was 71.3%, the viability, T/C [32] was 65.2% and the viability, T/C [33] was 42.9%. For the same compound, the viability, T/C [34] was 1.48%, the viability, T/C [35] was 0.49% and the viability, T/C [36] was 0.31%.
